Assay results as given in patent US20120010075A1 (priority 2009, published 2012).

Tests used:
[1] = system: Phytophthora capsici; experiment: In vitro fungitoxicity of hydrazones with and without copper towards Phytophthora capsici (Example 28, Table 3); type: cell-based; conditions: for % Inhn Plus copper Observed: copper-plus AS medium (CuCl2, 50 μM)
[2] = system: Phytophthora infestans; type: in vivo, Phytophthora infestans on tomato; conditions: hydrazone 50 ppm + 50 μM CuCl2.2H2O, applied 24 h before inoculation, assessed 7 days after inoculation, tomato
[3] = system: Leptosphaeria nodorum (LEPTNO); experiment: In vitro fungitoxicity of hydrazones with and without copper towards Leptosphaeria nodorum (Example 26); type: cell-based; conditions: 72 h at 25° C.; for LEPTNO % Inhn. Plus Copper Observed: copper-plus medium (CuCl2.2H2O)
[4] = Phytophthora capsici, 0.039 μg/mL, copper-minus AS medium, 48 h, read-out: % Inhn Minus copper Observed
[5] = Parastagonospora nodorum, 72 h, compound 0.05 μg/mL, copper-minus medium, read-out: LEPTNO % Inhn. Minus Copper Observed
[6] = compound 0.05 μg/mL, copper-minus medium

Row | Compound | % Inhn Plus copper Observed ([1]; 0.039 μg/mL, 48 h) [%] | inhibition of growth at 0.039 µg/mL [1, 4] [%] | TLB % Control [2] [%] | inhibition of growth at 0.05 µg/mL [3, 5] [%] | LEPTNO % Inhn. Plus Copper Observed ([3]; compound 0.05 μg/mL) [%] | also measured
1 | O=C(N/N=C/c1ccccc1O)c1ccccc1O [Example 1] | 87.2 | 9.7 | 64.0 | 0.7 | 96.2 | 
2 | CNc1ccccc1C(=O)N/N=C/c1ccccc1O [Example 3] | 88.5 | 0 | 47.0 | 2.3 | 93.0 | 
3 | O=C(CCc1cc(Br)c(O)c(Br)c1)N/N=C/c1cc(Cl)cc(Cl)c1O [Example 5] | 93.9 | 18.6 | 22.0 | 4.8 | 56.1 | 
4 | O=C(N/N=C/c1cc(Cl)cc(Cl)c1O)c1ccc2c(c1)OCO2 [Example 6] | 95.8 | 28.8 | 88.1 | 3.9 | 96.4 | 
5 | Cc1ccc(/C=N/NC(=O)c2ccc(C(C)C)cc2)c(O)c1 [Example 14] | 87.2 | 0 | 7.5 |  |  | inhibition of growth at 0.156 µg/mL ([3]; Parastagonospora nodorum, 72 h, compound 0.156 μg/mL, copper-minus medium, read-out: LEPTNO % Inhn. Minus Copper Observed): 2.9%; LEPTNO % Inhn. Plus Copper Observed ([3]; compound 0.156 μg/mL): 59.1%
6 | O=C(N/N=C/c1cccc(F)c1O)c1ccccc1 [Example 15] | 91.8 |  | 58.5 |  | 96.6 | melting point: 197 to 198 °C; % Inhn Plus copper Predicted ([1]; 0.039 μg/mL, Colby formula, CuCl2, 50 μM): 81.2%; % Inhn Minus copper Observed ([1]; 0.039 μg/mL, copper-minus AS medium, 48 h): 80.4%; LEPTNO % Inhn. Minus Copper Observed [3, 6]: 4.4%
7 | CCOc1ccc(C(=O)N/N=C/c2ccccc2O)cc1 [Example 21] | 90.0 | 0 | 65.5 | 0.1 | 94.1 | 
8 | Cc1ccc(C(=O)N/N=C/c2cc(Br)cc(Br)c2O)c(C)c1 [Example 28] | 93.8 | 11.4 | 62.7 |  | 96.8 | LEPTNO % Inhn. Minus Copper Observed [3, 6]: 7.0%
9 | Oc1c(Cl)cc(Cl)cc1/C=N/NC(=S)c1ccccc1 [Example 52] | 91.2 | 40.6 |  |  |  | inhibition of growth at 0.2 µg/mL ([3]; Parastagonospora nodorum, 72 h, compound 0.2 μg/mL, copper-minus medium, read-out: LEPTNO % Inhn. Minus Copper Observed): 12.3%; LEPTNO % Inhn. Plus Copper Observed ([3]; compound 0.2 μg/mL): 96.4%
10 | O=C(N/N=C/c1cc(Cl)cc(Cl)c1O)c1ccccc1C(F)(F)F [Example 56] | 94.1 | 57.5 | 81.3 | 2.1 | 96.3 | melting point: 106 to 111 °C
11 | O=C(N/N=C/c1ccccc1O)c1cccc(C(F)(F)F)c1 [Example 61] | 95.6 | 17.6 | 60.0 | 3.8 | 93.6 | 
12 | O=C(N/N=C/c1cc(Cl)cc(Cl)c1O)c1ccc(-c2ccccc2)cc1 [Example 74] |  |  | 63.6 | 3 | 95.7 | % Inhn Plus copper Observed ([1]; 5 μg/mL, 48 h): 89.4%; inhibition of growth at 5 µg/mL ([1]; Phytophthora capsici, 5 μg/mL, copper-minus AS medium, 48 h, read-out: % Inhn Minus copper Observed): 17.2%
13 | Nc1ccccc1C(=O)N/N=C/c1cc(Cl)cc(Cl)c1O [Example 91] | 93.2 | 52.1 | 18.0 | 0 | 79.3 | 
14 | COc1cccc(C(=O)N/N=C/c2cc(Cl)cc(Cl)c2O)c1C [Example 99] | 94.0 | 23.6 | 50.3 | 8.9 | 94.5 | melting point: 192 to 194 °C
15 | O=C(N/N=C/c1cc(Cl)cc(Cl)c1O)c1ccccc1F [Example 101] | 88.2 | 70 | 85.3 | 7.8 | 97.3 | 
16 | O=C(N/N=C/c1cc(Br)cc(Br)c1O)c1cccc(F)c1 [Example 119] | 95.1 | 37.9 | 91.9 | 2.2 | 95.7 | 
17 | O=C(Cc1ccc(Cl)cc1)N/N=C/c1cc(Cl)cc(Cl)c1O [Example 123] | 94.8 | 16.3 | 71.0 | 7.5 | 95.5 | 
18 | O=C(Cc1ccccc1)N/N=C/c1cc(Br)cc(Br)c1O [Example 124] | 89.7 | 25 | 23.0 | 0 | 88.2 | 
19 | O=C(Cc1ccccc1)N/N=C/c1cc(Cl)cc(Cl)c1O [Example 125] | 89.4 | 66.6 | 87.0 | 2.4 | 94.4 | 
20 | C/C(=N\NC(=O)CCc1ccccc1)c1ccccc1O [Example 131] | 93.7 | 5.6 | 62.0 | 0 | 96.8 | 
21 | C=CCc1cccc(/C=N/NC(=O)c2ccccc2)c1O [Example 143] | 94.5 | 6 | 64.4 | 2.1 | 98.2 | 
22 | O=C(N/N=C/c1cc(I)cc(I)c1O)c1ccccc1 [Example 146] | 91.4 | 11.8 | 71.2 | 0 | 96.2 | 
23 | O=C(N/N=C/c1ccccc1O)c1cccc(Br)c1 [Example 182] | 90.9 | 25.9 | 74.6 | 0 | 97.6 | 
24 | O=C(N/N=C/c1ccccc1O)c1ccc(-c2ccccc2)cc1 [Example 183] | 88.9 | 0 | 66.7 | 0 | 96.7 | 
25 | COc1ccc(O)c(/C=N/NC(=O)c2ccc(Cl)cc2)c1 [Example 207] | 88.9 | 0 | 52.7 | 0 | 95.3 | 
26 | O=C(Cc1ccccc1)N/N=C/c1cc(Cl)cc(Br)c1O [Example 210] | 92.7 | 36.6 | 37.0 | 1.9 | 94.1 | 
